Results from US9023789B2, “Amylin analogs and pharmaceutical compositions thereof” (Novo Nordisk A/S, priority 2012, dated 2015).
Numbered stars: 1 amine (or outer) side, 2 acyl side, 3 side chain; on linkers, the order of the positions; unused ones are H or OH. Bridge positions count the residues as written; N and C are the ends. Side chains are listed from the residue outwards. Peptide text beside a SMILES is read from it. * marks the point of attachment. C20 diacid = O=C(O)CCCCCCCCCCCCCCCCCCC(=O)*; γGlu = O=C(O)[C@H](CCC(=O)[*:2])N[*:1]; AEEA = NCCOCCOCC(=O)O

Tests used:
[1] = molecular target: T1, rat amylin receptor (rat calcitonin receptor + rat RAMP 3) (Rattus norvegicus, UniProt P32214+Q9JJ73); experiment: ASSAY (VI) binding to the rat amylin receptor; details: for IC50: binding to rat amylin receptor, read-out: rAmylin-R bind IC50
T1 construct: expressed in transfected cells; host or cells: BHK tk'ts 13 (transient, FuGENE 6), membranes
T1 sequence (P32214 25-479 isoform P32214-2 limits assumed): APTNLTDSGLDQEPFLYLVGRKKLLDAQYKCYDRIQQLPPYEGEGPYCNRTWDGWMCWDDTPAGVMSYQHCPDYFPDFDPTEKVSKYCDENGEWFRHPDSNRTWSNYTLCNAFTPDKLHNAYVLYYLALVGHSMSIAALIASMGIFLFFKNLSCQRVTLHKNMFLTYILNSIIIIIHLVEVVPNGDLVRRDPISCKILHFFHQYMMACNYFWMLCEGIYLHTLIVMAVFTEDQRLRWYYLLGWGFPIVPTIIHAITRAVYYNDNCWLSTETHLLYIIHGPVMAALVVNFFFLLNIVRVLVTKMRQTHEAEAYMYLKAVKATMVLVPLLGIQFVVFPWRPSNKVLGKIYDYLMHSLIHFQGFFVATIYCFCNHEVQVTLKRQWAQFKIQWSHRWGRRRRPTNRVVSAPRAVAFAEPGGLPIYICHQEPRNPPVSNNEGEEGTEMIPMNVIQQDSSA
T1 sequence (Q9JJ73 23-147 partner): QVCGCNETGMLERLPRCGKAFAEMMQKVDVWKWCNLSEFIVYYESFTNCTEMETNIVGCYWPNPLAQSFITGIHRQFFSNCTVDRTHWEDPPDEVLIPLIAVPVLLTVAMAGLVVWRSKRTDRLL
In short: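 This assay measured binding to the rat amylin receptor. BHK tk′ts 13 cells were transiently transfected with the rat calcitonin receptor using FuGENE® 6 (Roche), following the manufacturer's recommendations. About 48 hours after transfection, the cells were harvested and membranes were prepared from them for the binding determination.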

[2] = ASSAY (III) ThT fibrillation assay for physical stability; type: physicochemical
In short: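 Formulations with 1 μM ThT, pH adjusted as required, incubated at 37 °C with 960 rpm orbital shaking; fluorescence (ex 444/em 485 nm) read every 20 min. Fibrillation reported as mean ThT fluorescence ± SD of 4–8 replicates at time points; polypeptide concentration measured by reverse-phase HPLC before and after, post-centrifugation.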

[3] = Table 7, rat binding selectivity, rCTR IC50 / rAmylin-R IC50
[4] = Table 7a (preferred compounds), rat binding selectivity, rCTR IC50 / rAmylin-R IC50
[5] = ratio of rCTR bind IC50 to rAmylin-R bind IC50

SMILES | IC50 ([1]; Table 7) | Ratio rCT/rAmylin binding [1, 3] | Ratio rCT/rAmylin binding [1, 4] | Ratio rCT/rAmylin binding [1, 5] | ThT pH 4.0 lag time (h) [2]
CC[C@H](C)[C@H](NC(=O)[C@H](C)NC(=O)CNC(=O)[C@H](Cc1ccccc1)NC(=O)[C@H](CC(N)=O)NC(=O)[C@@H]1CCCN1C(=O)[C@H](CO)NC(=O)[C@H](CO)NC(=O)[C@H](Cc1c[nH]cn1)NC(=O)[C@H](CCCNC(=N)N)NC(=O)[C@H](CC(C)C)NC(=O)[C@H](Cc1ccccc1)NC(=O)[C@H](Cc1c[nH]cn1)NC(=O)[C@H](C)NC(=O)[C@H](CC(C)C)NC(=O)[C@H](CCCNC(=N)N)NC(=O)[C@H](CCC(N)=O)NC(=O)[C@@H](NC(=O)[C@H](C)NC(=O)[C@@H]1CSSC[C@H](NC(=O)[C@@H](N)CCCCNC(=O)COCCOCCNC(=O)CC[C@H](NC(=O)CCCCCCCCCCCCCCCCCCC(=O)O)C(=O)O)C(=O)N[C@@H](CC(N)=O)C(=O)N[C@@H]([C@@H](C)O)C(=O)N[C@@H](C)C(=O)N[C@@H]([C@@H](C)O)C(=O)N1)[C@@H](C)O)C(=O)N1CCC[C@H]1C(=O)N[C@@H](CO)C(=O)N[C@@H](CO)C(=O)N[C@H](C(=O)N[C@@H](CC(N)=O)C(=O)N[C@H](C(=O)NCC(=O)N[C@@H](CO)C(=O)N[C@@H](CC(N)=O)C(=O)N[C@H](C(=O)N[C@@H](Cc1ccc(O)cc1)C(N)=O)[C@@H](C)O)C(C)C)[C@@H](C)O [Example 69] (H-K([AEEA-γGlu-C20 diacid])CNTATCATQRLAHFLRHSSPNFGAIPSSTNVGSNTY-NH2; disulfide 2-7; N-terminus assumed) | 0.45 nM | 104.0 | 104.0 | 104.0 | 22 h
CC[C@H](C)[C@H](NC(=O)[C@H](C)NC(=O)CNC(=O)[C@H](Cc1ccccc1)NC(=O)[C@H](CC(N)=O)NC(=O)[C@@H]1CCCN1C(=O)[C@H](CO)NC(=O)[C@H](CO)NC(=O)[C@H](Cc1c[nH]cn1)NC(=O)[C@H](CCCNC(=N)N)NC(=O)[C@H](CC(C)C)NC(=O)[C@H](Cc1ccccc1)NC(=O)[C@H](CC(N)=O)NC(=O)[C@H](C)NC(=O)[C@H](CC(C)C)NC(=O)[C@H](CCCNC(=N)N)NC(=O)[C@H](CCC(N)=O)NC(=O)[C@@H](NC(=O)[C@H](C)NC(=O)[C@@H]1CSSC[C@H](NC(=O)[C@@H](N)CCCCNC(=O)COCCOCCNC(=O)CC[C@H](NC(=O)CCCCCCCCCCCCCCCCCCC(=O)O)C(=O)O)C(=O)N[C@@H](CC(N)=O)C(=O)N[C@@H]([C@@H](C)O)C(=O)N[C@@H](C)C(=O)N[C@@H]([C@@H](C)O)C(=O)N1)[C@@H](C)O)C(=O)N1CCC[C@H]1C(=O)N1CCC[C@H]1C(=O)N[C@@H](CO)C(=O)N[C@H](C(=O)N[C@@H](CC(N)=O)C(=O)N[C@H](C(=O)NCC(=O)N1CCC[C@H]1C(=O)N[C@@H](CC(N)=O)C(=O)N[C@H](C(=O)N[C@@H](Cc1ccc(O)cc1)C(N)=O)[C@@H](C)O)C(C)C)[C@@H](C)O [Example 55] (H-K([AEEA-γGlu-C20 diacid])CNTATCATQRLANFLRHSSPNFGAIPPSTNVGPNTY-NH2; disulfide 2-7; N-terminus assumed) | 0.081 nM | 77.2 | 77.2 | 77.2 | 24 h
CC(C)C[C@H](NC(=O)[C@H](CCCNC(=N)N)NC(=O)[C@H](CCC(N)=O)NC(=O)[C@@H](NC(=O)[C@H](C)NC(=O)[C@@H]1CSSC[C@H](NC(=O)[C@@H](N)CCCCNC(=O)CC[C@H](NC(=O)CC[C@H](NC(=O)CCCCCCCCCCCCCCCCCCC(=O)O)C(=O)O)C(=O)O)C(=O)N[C@@H](CC(N)=O)C(=O)N[C@@H]([C@@H](C)O)C(=O)N[C@@H](C)C(=O)N[C@@H]([C@@H](C)O)C(=O)N1)[C@@H](C)O)C(=O)N[C@@H](C)C(=O)N[C@@H](CC(=O)O)C(=O)N[C@@H](Cc1ccccc1)C(=O)N[C@@H](CC(C)C)C(=O)N[C@@H](CCCNC(=N)N)C(=O)N[C@@H](Cc1c[nH]cn1)C(=O)N[C@@H](CO)C(=O)N[C@@H](CO)C(=O)N1CCC[C@H]1C(=O)N[C@@H](CC(N)=O)C(=O)N[C@@H](Cc1ccccc1)C(=O)NCC(=O)N[C@@H](C)C(=O)N1CCC[C@H]1C(=O)N[C@@H](CC(C)C)C(=O)N[C@@H](CO)C(=O)N[C@@H](CO)C(=O)N[C@H](C(=O)N[C@@H](CC(N)=O)C(=O)N[C@H](C(=O)NCC(=O)N[C@@H](CO)C(=O)N[C@@H](CC(=O)O)C(=O)N[C@H](C(=O)N[C@@H](Cc1ccc(O)cc1)C(N)=O)[C@@H](C)O)C(C)C)[C@@H](C)O [Example 1] (H-K([γGlu-γGlu-C20 diacid])CNTATCATQRLADFLRHSSPNFGAPLSSTNVGSDTY-NH2; disulfide 2-7) | 1.3 nM | 103.9 | 103.9 | 103.9 | 0 h
CC[C@H](C)[C@H](NC(=O)[C@H](C)NC(=O)CNC(=O)[C@H](Cc1ccccc1)NC(=O)[C@H](CC(N)=O)NC(=O)[C@@H]1CCCN1C(=O)[C@H](CO)NC(=O)[C@H](CO)NC(=O)[C@H](Cc1c[nH]cn1)NC(=O)[C@H](CCCNC(=N)N)NC(=O)[C@H](CC(C)C)NC(=O)[C@H](Cc1ccccc1)NC(=O)[C@H](CCC(=O)O)NC(=O)[C@H](C)NC(=O)[C@H](CC(C)C)NC(=O)[C@H](CCCNC(=N)N)NC(=O)[C@H](CCC(N)=O)NC(=O)[C@@H](NC(=O)[C@H](C)NC(=O)[C@@H]1CSSC[C@H](NC(=O)[C@@H](N)CCCCNC(=O)CC[C@H](NC(=O)CC[C@H](NC(=O)CCCCCCCCCCCCCCCCCCC(=O)O)C(=O)O)C(=O)O)C(=O)N[C@@H](CC(N)=O)C(=O)N[C@@H]([C@@H](C)O)C(=O)N[C@@H](C)C(=O)N[C@@H]([C@@H](C)O)C(=O)N1)[C@@H](C)O)C(=O)N[C@@H](CC(C)C)C(=O)N[C@@H](CO)C(=O)N[C@@H](CO)C(=O)N[C@H](C(=O)N1CCC[C@H]1C(=O)N[C@H](C(=O)NCC(=O)N1CCC[C@H]1C(=O)N[C@@H](CCC(=O)O)C(=O)N[C@H](C(=O)N[C@@H](Cc1ccc(O)cc1)C(N)=O)[C@@H](C)O)C(C)C)[C@@H](C)O [Example 121] (H-K([γGlu-γGlu-C20 diacid])CNTATCATQRLAEFLRHSSPNFGAILSSTPVGPETY-NH2; disulfide 2-7; N-terminus assumed) | 0.449 nM | 74.7 | 74.7 | 74.7 | 3 h
CC[C@H](C)[C@H](NC(=O)[C@H](C)NC(=O)CNC(=O)[C@H](Cc1ccccc1)NC(=O)[C@H](CC(N)=O)NC(=O)[C@@H]1CCCN1C(=O)[C@H](CO)NC(=O)[C@H](CO)NC(=O)[C@H](Cc1c[nH]cn1)NC(=O)[C@H](CCCNC(=N)N)NC(=O)[C@H](CC(C)C)NC(=O)[C@H](Cc1ccccc1)NC(=O)[C@H](Cc1c[nH]cn1)NC(=O)[C@H](C)NC(=O)[C@H](CC(C)C)NC(=O)[C@H](CCCNC(=N)N)NC(=O)[C@H](CCC(N)=O)NC(=O)[C@@H](NC(=O)[C@H](C)NC(=O)[C@@H]1CSSC[C@H](NC(=O)[C@H](CCCNC(=N)N)NC(=O)CNC(=O)CC[C@H](NC(=O)CCCCCCCCCCCCCCCCCCC(=O)O)C(=O)O)C(=O)N[C@@H](CC(N)=O)C(=O)N[C@@H]([C@@H](C)O)C(=O)N[C@@H](C)C(=O)N[C@@H]([C@@H](C)O)C(=O)N1)[C@@H](C)O)C(=O)N1CCC[C@H]1C(=O)N[C@@H](CO)C(=O)N[C@@H](CO)C(=O)N[C@H](C(=O)N[C@@H](CC(N)=O)C(=O)N[C@H](C(=O)NCC(=O)N[C@@H](CO)C(=O)N[C@@H](CC(N)=O)C(=O)N[C@H](C(=O)N[C@@H](Cc1ccc(O)cc1)C(N)=O)[C@@H](C)O)C(C)C)[C@@H](C)O [Example 99] ({C20 diacid-γGlu}-GRCNTATCATQRLAHFLRHSSPNFGAIPSSTNVGSNTY-NH2; disulfide 3-8) | 2.7 nM | 79.8 | 79.8 | 79.8 | 17 h
